Laboratory results published in patent US10450258B2, “Substituted aromatic compounds for the treatment of pulmonary fibrosis, liver fibrosis, skin fibrosis and cardiac fibrosis” (PROMETIC PHARMA SMT LIMITED, priority 2013, dated 2019).
Counter-ions that a name gives are not always drawn.

What was measured:
[1] = tested on: α-SMA mRNA in NRK-49F cells; assay: Inhibition of α-SMA mRNA in TGF-β-activated NRK-49F fibroblasts; assay type: cell-based, rat
Protocol: (§1) CTGF, collagen 1 and α-SMA are fibrotic markers produced by activated fibroblasts and by epithelial cells that undergo to epithelial-mesenchymal transition (EMT).
(§2) Table 2: Percentage of inhibition of collagen in epithelial cells (HK2 cells) and fibroblasts (NHDF) and percentage of inhibition of α-SMA in fibroblasts (NRK-49F and NHDF) has been determined for several compounds according the invention. In all cases, the mRNA of collagen and α-SMA has been measured, and the inhibition was evaluated in presence of a respective concentration of the tested compound. The compounds have been tested at different concentrations [mM]. All compounds reduce the expression of collagen and α-SMA in HK-2, NHDF and NRK-49F cells.

[2] = tested on: collagen 1 mRNA in HK-2 cells (epithelial cells); assay: Inhibition of collagen mRNA in TGF-β-treated HK-2 epithelial cells; assay type: cell-based; conditions: for inhibition at 500 µM: HK-2, compound 0.5 mM; for Collagen HK-2 cells % inhibition: compound 0.25 mM
Protocol: as §1, §2

[3] = tested on: collagen 1 mRNA in NHDF cells; assay: Inhibition of collagen mRNA in TGF-β-activated NHDF fibroblasts; assay type: cell-based; conditions: Homo sapiens, compound 0.5 mM
Protocol: as §1, §2

[4] = Toxicity related to drug in the bleomycin-induced pulmonary fibrosis mouse model; assay type: in vivo; conditions: oral, Compound I 200 mg/kg, pirfenidone 400 mg/kg, alone or in combination, solubilized in PBS
Protocol: (§3) It was therefore evaluated side-by-side with Compound I in the bleomycin-induced pulmonary fibrosis mouse model by the same protocol described in Example 4 above. Compound I (200 mg/kg) and pirfenidone (400 mg/kg) were orally administered either alone or in combination.
Compound I and pirfenidone were solubilized in PBS. In the combination therapy, pirfenidone was solubilized in a solution of Compound I. No toxicity was reported with Compound I treatment.

[5] = tested on: TGF-β, CTGF, IL-23p19, IL-6, collagen 1, fibronectin (FN-1), collagen 3 mRNA in lung tissue; assay: Real-time PCR of inflammatory and fibrotic marker mRNA in lung tissue, bleomycin-induced pulmonary fibrosis mouse model; assay type: in vivo, mouse (male C57BL6); conditions: oral, Compound I 200 mg/kg, pirfenidone 400 mg/kg, alone or combined
Protocol: (§4) Male C57BL6 mice are administered intratracheal instillation of bleomycin sulphate (0.025 U) at day 0, randomized and administered Compound I (oral administration, 100 mg/kg and 200 mg/kg) on day 7 to day 20.
Further analysis of the lung tissue was undertaken. CTGF, collagen 1 and IL-23p19 mRNA expression was quantified by real-time PCR.
as §3
In order to determine the effect of Compound I on pulmonary fibrosis, further analysis of the lung tissue was undertaken. TGF-β, CTGF, IL-23 and IL-6 mRNA expression was quantified by real-time PCR. […] Oral administration of pirfenidone had no effect on CTGF mRNA expression but decreased TGF-β, IL-23 and IL-6 mRNA expression. […]

[6] = tested on: bleomycin-induced pulmonary fibrosis mouse model; assay: Bleomycin-induced pulmonary fibrosis mouse model: body weight and lung histology; assay type: in vivo, mouse (male C57BL6); conditions: oral, Compound I 200 mg/kg, pirfenidone 400 mg/kg
Protocol: Intratracheal instillation of the anticancer drug bleomycin into the mouse results in acute inflammation followed by a chronic fibrotic response. Therefore, evaluation of candidate antifibrotic drugs such as Compound I can be undertaken by treatment of the mice at appropriate time points and histologic, biochemical and cellular readouts may be used to monitor candidate drug efficacy in this model.
as §4
Lesions score was evaluated using HEP (Hemalun with Eosin/Ploxine) and Masson's trichrome staining. Lesions score was recorded as 1) Consolidation as shown by disrupted lung architecture (cellular and/or fibrosis) and 2) Alveolar wall as shown by thickness and shrinking outside of consolidated area.
as §3
Lesions score was evaluated using HEP (Hemalun with Eosin/Ploxine) and Masson's trichrome staining and recorded as 1) Consolidation as shown by disrupted lung architecture (cellular and/or fibrosis), and 2) Alveolar wall as shown by thickness and shrinking outside of consolidated area.
The lesions score as determined by the percentage of leukocyte infiltration (inflammatory zone) multiplied by the percentage of collagen found in the leukocyte infiltrate was quantified by histomorphometry using Masson's trichrome staining.
Visual grading of pulmonary fibrosis was also determined according to Ashcroft's score. Briefly, the entire fields of each lung section were read by a blinded examiner, and each field was visually graded from 0 to 8. Criteria for grading lung fibrosis were as follows: Grade 0=normal lung; Grade 1=minimal fibrous thickening of alveolar or bronchiolar walls; Grade 3=moderate thickening of walls without obvious damage to lung architecture; Grade 5=increased fibrosis with definitive damage to lung structure and formation of fibrous bands or small fibrous masses; Grade 7=severe distortion of structure and large fibrous area; Grade 8=total fibrous obliteration of lung fields.

[7] = tested on: CCl4-induced liver fibrosis mouse model; assay: CCl4-induced liver fibrosis mouse model; assay type: in vivo, mouse (male C57BL/6); conditions: CCl4 twice a week for 8 weeks; oral 100 and 200 mg/kg every day, day 1 to day 58; FIG. 22
Source text: Hepatic fibrosis is an outcome of many chronic liver diseases, including hepatitis B virus, hepatitis C virus, alcoholic liver disease, non-alcoholic steatohepatitis and diverse chronic intoxication. It was thus desired to evaluate the effect of Compound I on murine CCl4-induced liver fibrosis. Intoxication with CCl4 results in hepatocyte damage, necrosis, inflammation, and fibrosis, which spreads to link the vascular structures that feed into and drain the hepatic sinusoid (the portal tract and central vein radical, respectively), and over 8-30 weeks results in the development of fibrosis to hepatocellular carcinoma. Therefore, evaluation of candidate antifibrotic drugs such as Compound I can be undertaken by treatment of the mice at appropriate time points and histologic, biochemical and cellular readouts may be used to monitor candidate drug efficacy in this model.
CCl4 (10% in corn oil, 2 ml/kg) was intraperitoneally injected twice a week for 16 weeks in male C57BL/6. Compound I (200 mg/kg) was orally administered every day from day 1 to day 113. Mice were euthanasized and histology and liver fibrotic markers were analyzed.
To determine if Compound I has an effect on liver fibrosis, hydroxyproline level was used to measure the collagen content in the tissue, which is indicative of liver fibrosis.
The reduction of collagen level in liver tissue was also observed in histological micrographs using the Masson's Trichrome staining.
The Masson's trichrome stain the cytoplasm, keratin, muscle fibers and intracellular fibers in red colour; nuclei in black colour and collagen (fibrous tissue) in blue color.
Another experiment has been performed with Compound 1 and Compound V where CCL4 (10% in olive oil, 2 ml/kg) was intraperitoneally injected twice a week for 8 weeks in male C57BL/6. Compound 1 and compound V were orally administered (100 and 200 mg/kg) every day from day 1 to day 58. Mice were euthanasized and collagen content (marker of fibrosis) in the liver was quantified by histomorphometry using Masson's trichrome staining.

α-SMA mRNA in NHDF cells = assay: Inhibition of α-SMA mRNA in TGF-β-activated NHDF fibroblasts; assay type: cell-based; conditions: Homo sapiens, compound 0.5 mM
Protocol: as §1, §2

[8] = Rattus norvegicus, NRK-49F, compound 0.25 mM
[9] = Rattus norvegicus, NRK-49F, compound 0.5 mM

CCCCCc1cccc(C(C)C(=O)[O-])c1.[Na+] (stereo not drawn) [Compound VIII, Sodium Salt of 2-(3-pentylphenyl)propionic acid]
α-SMA NRK-49F cells % inhibition ([1]; compound 0.25 mM): 86%

CCCCCc1cc(F)cc(CC(=O)O)c1 [Compound III, Sodium Salt of 3-fluoro-5-pentylphenylacetic acid]
inhibition at 250 µM [1, 8]: 100% | inhibition at 500 µM ([2]; Homo sapiens): 100%

CCCC=Cc1ccc(F)c(CC(=O)[O-])c1.[Na+] [Compound XIII, Sodium Salt of 2-(2-Fluoro-5-(pent-1-enyl)phenyl)acetic acid]
α-SMA NRK-49F cells % inhibition ([1]; compound 0.5 mM): 84%

CCCCCc1cccc(C(=O)C(=O)[O-])c1.[Na+] [Compound XVIII, Sodium Salt of 2-Oxo-2-(3-pentylphenyl)acetic acid]
α-SMA NRK-49F cells % inhibition ([1]; compound 0.25 mM): 100%

CCCCCc1cc(CC(=O)O)ccc1F [Compound XV, Sodium Salt of 2-(4-Fluoro-3-pentylphenyl)acetic acid]
inhibition at 500 µM [1, 9]: 100% | inhibition at 500 µM ([2]; Homo sapiens): 100%

CCCCCc1cccc(CCC(=O)[O-])c1.[Na+] [Compound VII, Sodium Salt of 3-(3-pentylphenyl)propionic acid]
α-SMA NRK-49F cells % inhibition ([1]; compound 0.25 mM): 100%

CCC/C=C/c1cccc(CC(=O)O)c1 [Compound IV, Sodium Salt of E-(3-pent-1-enyl-phenyl)acetic acid]
inhibition at 500 µM [1, 9]: 64%

CCCCCc1cc(O)c(Cc2ccccc2)c(CC(=O)O)c1 [Compound XX, Sodium Salt of 2-(2-Benzyl-3-hydroxy-5-pentylphenyl)acetic acid]
inhibition at 62.5 µM ([1]; Rattus norvegicus, NRK-49F, compound 0.0625 mM): 95% | inhibition at 125 µM ([2]; Homo sapiens, HK-2, compound 0.125 mM): 73%

CCCCCc1cccc(CC(=O)[O-])c1O.[Na+] [Compound XIX, Sodium Salt of 2-(2-Hydroxy-3-pentylphenyl)acetic acid]
α-SMA NRK-49F cells % inhibition ([1]; compound 0.25 mM): 100% | Collagen HK-2 cells % inhibition [2]: 100%

CCCCCc1cc(O)cc(CC(=O)O)c1 [Compound II, Sodium Salt of 3-hydroxy-5-pentylphenylacetic acid]
inhibition at 500 µM [3]: 40% | inhibition at 500 µM [1, 9]: 66% | inhibition at 500 µM ([2]; Homo sapiens): 43%

CCCCCc1cccc(CC(=O)O)c1F [Compound XVI, Sodium Salt of 2-(2-Fluoro-3-pentylphenyl)acetic acid]
inhibition at 250 µM [1, 8]: 100% | inhibition at 500 µM ([2]; Homo sapiens): 100%

CCCCCCc1cccc(CC(=O)O)c1 [Compound XI, Sodium Salt of 2-(3-Hexylphenyl)acetic acid]
inhibition at 100 µM ([1]; Rattus norvegicus, NRK-49F, compound 0.1 mM): 80%

CCCCC=Cc1cccc(CC(=O)[O-])c1.[Na+] [Compound XII, Sodium Salt of 2-(3-(Hex-1-enyl)phenyl)acetic acid]
α-SMA NRK-49F cells % inhibition ([1]; compound 0.1 mM): 49%

CCCCCc1cccc(C(C)(C)C(=O)[O-])c1.[Na+] [Compound X, Sodium Salt of 2-methyl-2-(3-pentylphenyl)propionic acid]
α-SMA NRK-49F cells % inhibition ([1]; compound 0.1 mM): 46%

CCCCCc1cccc(C(F)C(=O)[O-])c1.[Na+] (stereo not drawn) [Compound IX, Sodium Salt of 2-Fluoro-2-(3-pentylphenyl)acetic acid]
α-SMA NRK-49F cells % inhibition ([1]; compound 0.5 mM): 82%

Cc1ccc(=O)n(-c2ccccc2)c1 [Pirfenidone, pirfenidone, reference compound]
Toxicity related to drug [4]: Vertigo ++++ | Toxicity related to drug ([4]; listed as pirfenidone): severe vertigo | TGF-β mRNA expression in lungs ([5]; FIG. 12): decreased | CTGF mRNA expression in lungs ([5]; FIG. 13): no effect | IL-23 mRNA expression in lungs ([5]; FIG. 14): decreased | IL-6 mRNA expression in lungs ([5]; FIG. 15): decreased | collagen 3 mRNA expression in lungs ([5]; FIG. 18): no effect | collagen 1 mRNA expression in lungs ([5]; reduction to the control level, FIG. 16): significant reduction | fibronectin (FN-1) mRNA expression in lungs ([5]; reduction to the control level, FIG. 17): significant reduction | histological lesion score of lungs (HEP and Masson's trichrome) ([6]; alone or combined, FIG. 8): no reduction of fibrosis at the histological level | visual grading of pulmonary fibrosis (Ashcroft's score) ([6]; alone or combined, FIG. 11): weak activity | lesions and fibrosis in lungs (photomicrographs stained with HEP) ([6]; FIG. 10): no effect

CCCCCc1ccc(O)c(CC(=O)O)c1 [Compound V, Sodium Salt of (2-hydroxy-5-pentylphenyl)acetic acid]
inhibition at 500 µM [3]: 100% | collagen content in liver (histomorphometry, Masson's trichrome) [7]: significant reduction | inhibition at 500 µM (α-SMA mRNA in NHDF cells): 100% | inhibition at 500 µM [1, 9]: 100% | inhibition at 500 µM ([2]; Homo sapiens): 100%

CCCCCc1cc(CCC(=O)O)ccc1F [Compound VI, Sodium Salt of 3-(4-fluoro-3-pentylphenyl)propionic acid]
inhibition at 125 µM ([1]; Rattus norvegicus, NRK-49F, compound 0.125 mM): 90%

CCCCCc1cc(CCC(=O)[O-])ccc1O.[Na+] [Compound XVII, Sodium Salt of 3-(4-Hydroxy-3-pentylphenyl)propanoic acid]
α-SMA NRK-49F cells % inhibition ([1]; compound 0.5 mM): 66% | Collagen HK-2 cells % inhibition [2]: 0%

CCCCCc1cc(CC(=O)O)ccc1O [Compound XIV, Sodium Salt of 2-(4-Hydroxy-3-pentylphenyl)acetic acid]
inhibition at 500 µM [3]: 26% | inhibition at 500 µM [1, 9]: 92% | inhibition at 500 µM ([2]; Homo sapiens): 72%
